Laboratory results published in patent US20090005369A1, “Oxazolidinone Compounds and Compositions and Methods Related Thereto” (priority 2004, published 2009).
Converted amounts (≈) assume the structure as drawn.

How the values were obtained:
[1] = test system: E. faecalis ATCC 51575 MDR 311; experiment: MIC by standard microdilution (NCCLS M7-A5); type: cell-based; conditions: Enterococcus faecalis, ATCC51575, read-out: In vitro activities against bacteria, MIC
[2] = test system: E. faecium ATCC 51559 MDR 312; experiment: MIC by standard microdilution (NCCLS M7-A5); type: cell-based; conditions: Enterococcus faecium, ATCC51559, read-out: In vitro activities against bacteria, MIC
[3] = molecular target: T1, human MAO-B (Homo sapiens, UniProt P27338); experiment: In vitro MAO-B enzymatic activity (kynuramine substrate, fluorescence); type: biochemical; conditions: membranes from SF9 cells, kynuramine 30 μM, read-out: Inhibitory activity of human MAO, Ki
T1 construct: purchased Gentest, BD, USA; host or cells: SF9 insect cells (membranes)
T1 sequence (P27338 1-520): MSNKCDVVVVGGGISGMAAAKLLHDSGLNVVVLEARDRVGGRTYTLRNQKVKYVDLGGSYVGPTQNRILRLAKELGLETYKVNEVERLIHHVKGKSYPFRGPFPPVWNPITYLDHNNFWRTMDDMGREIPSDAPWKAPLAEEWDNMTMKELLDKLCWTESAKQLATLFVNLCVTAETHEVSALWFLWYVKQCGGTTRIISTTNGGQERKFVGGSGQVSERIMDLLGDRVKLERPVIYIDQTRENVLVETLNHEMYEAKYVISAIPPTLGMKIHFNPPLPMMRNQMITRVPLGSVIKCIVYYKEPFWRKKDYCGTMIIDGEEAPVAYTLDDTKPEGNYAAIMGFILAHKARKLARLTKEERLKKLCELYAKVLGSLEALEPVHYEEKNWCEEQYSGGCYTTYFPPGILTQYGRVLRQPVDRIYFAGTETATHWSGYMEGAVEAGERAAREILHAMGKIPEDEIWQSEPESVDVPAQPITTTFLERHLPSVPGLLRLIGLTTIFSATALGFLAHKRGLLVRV

[4] = test system: S. aureus ATCC 43300 MR 214; experiment: MIC by standard microdilution (NCCLS M7-A5); type: cell-based; conditions: Staphylococcus aureus, ATCC43300, read-out: In vitro activities against bacteria, MIC
[5] = test system: S. aureus ATCC 25923 MS 319; experiment: MIC by standard microdilution (NCCLS M7-A5); type: cell-based; conditions: Staphylococcus aureus, ATCC25923, read-out: In vitro activities against bacteria, MIC
[6] = test system: S. pneumoniae ATCC 49619 PR 215; experiment: MIC by standard microdilution (NCCLS M7-A5); type: cell-based; conditions: Streptococcus pneumoniae, ATCC49619, read-out: In vitro activities against bacteria, MIC
[7] = molecular target: T2, human MAO-A (Homo sapiens, UniProt P21397); experiment: In vitro MAO-A enzymatic activity (kynuramine substrate, fluorescence); type: biochemical; conditions: membranes from SF9 cells, kynuramine 30 μM, read-out: Inhibitory activity of human MAO, Ki
T2 construct: purchased Gentest, BD, USA; host or cells: SF9 insect cells (membranes)
T2 sequence (P21397 1-527): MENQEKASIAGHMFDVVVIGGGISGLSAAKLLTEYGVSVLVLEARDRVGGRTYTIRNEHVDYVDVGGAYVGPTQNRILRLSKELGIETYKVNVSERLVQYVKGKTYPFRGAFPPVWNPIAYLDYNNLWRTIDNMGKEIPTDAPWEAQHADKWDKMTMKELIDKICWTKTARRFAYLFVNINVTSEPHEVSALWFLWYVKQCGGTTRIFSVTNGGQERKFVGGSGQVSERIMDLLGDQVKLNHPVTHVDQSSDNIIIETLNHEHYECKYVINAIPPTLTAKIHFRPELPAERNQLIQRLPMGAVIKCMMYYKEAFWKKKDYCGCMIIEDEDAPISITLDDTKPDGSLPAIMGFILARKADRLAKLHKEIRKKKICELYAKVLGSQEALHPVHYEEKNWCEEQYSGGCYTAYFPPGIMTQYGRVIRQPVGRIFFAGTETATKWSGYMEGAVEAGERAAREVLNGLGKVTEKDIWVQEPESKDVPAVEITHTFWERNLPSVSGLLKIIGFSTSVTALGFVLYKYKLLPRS

[8] = test system: E. faecalis ATCC 29212 53; experiment: MIC by standard microdilution (NCCLS M7-A5); type: cell-based; conditions: Enterococcus faecalis, ATCC29212, read-out: In vitro activities against bacteria, MIC
[9] = test system: Moraxella catarrhalis HCl-78 259/339; experiment: MIC by standard microdilution (NCCLS M7-A5); type: cell-based; conditions: HCL78259/339, read-out: In vitro activities against bacteria, MIC
[10] = test system: S. epidermidis ATCC 12228 MR 11; experiment: microbe, parasite or virus in culture; type: cell-based; conditions: Staphylococcus epidermidis, ATCC12228, read-out: In vitro activities against bacteria, MIC
[11] = test system: Moxarella, Pasteurella and Bacteroides spp.; conditions: background statement; cited from earlier work

Structure (SMILES) | MIC [1] [µg/mL] | MIC [2] [µg/mL] | Ki [3] [µM] | MIC [4] [µg/mL] | MIC [5] [µg/mL] | MIC [6] [µg/mL] | Ki [7] [µM] | MIC [8] [µg/mL] | MIC [9] [µg/mL] | MIC [10] [µg/mL] | MICs [11] [µg/mL]
O=C1O[C@@H](CNC(=S)c2ccco2)CN1c1ccc(N2CCOCC2)c(F)c1 [Example 2, N-[[(5S)-3-[3-fluoro-4-(4-morpholinyl)-phenyl]-2-oxo-5-oxazolidinyl]methyl]furan-2-yl-thioamide] | 2 (≈ 4.93 µM) | 1 (≈ 2.47 µM) | 5.3 | 2 (≈ 4.93 µM) | 8 (≈ 19.7 µM) | 2 (≈ 4.93 µM) | 170 | 2 (≈ 4.93 µM) | 2 (≈ 4.93 µM) | – | –
O=C1O[C@@H](CNC(=S)c2ccoc2)CN1c1ccc(N2CCOCC2)c(F)c1 [Example 4, N-[[(5S)-3-[3-fluoro-4-(4-morpholinyl)-phenyl]-2-oxo-5-oxazolidinyl]methyl]furan-3-yl-thioamide] | 1 (≈ 2.47 µM) | 2 (≈ 4.93 µM) | 2.4 | 1 (≈ 2.47 µM) | 1 (≈ 2.47 µM) | 1 (≈ 2.47 µM) | ≥ 250 | 1 (≈ 2.47 µM) | 1 (≈ 2.47 µM) | 1 (≈ 2.47 µM) | –
CC(=S)N1CCN(c2ccc(N3C[C@H](CNC(=S)c4ccoc4)OC3=O)cc2F)CC1 [Example 7, N-[[(5S)-3-[3-fluoro-4-(4′-thioacetyl-4-piperazinyl)-phenyl]-2-oxo-5-oxazolidinyl]methyl]furan-3-yl-thioamide] | 0.06 (≈ 0.13 µM) | 0.5 (≈ 1.08 µM) | 2.8 | 0.5 (≈ 1.08 µM) | 0.5 (≈ 1.08 µM) | 0.5 (≈ 1.08 µM) | ≥ 200 | 0.13 (≈ 0.281 µM) | 0.25 (≈ 0.54 µM) | 0.5 (≈ 1.08 µM) | –
O=C1O[C@@H](CNC(=S)c2ccco2)CN1c1ccc(N2CCSCC2)c(F)c1 [Example 9, N-[[(5S)-3-[3-fluoro-4-(4-thiomorpholinyl)-phenyl]-2-oxo-5-oxazolidinyl]methyl]furan-2-yl-thioamide] | 2 (≈ 4.74 µM) | 8 (≈ 19 µM) | 1 | 4 (≈ 9.49 µM) | 2 (≈ 4.74 µM) | 4 (≈ 9.49 µM) | 47.5 | 2 (≈ 4.74 µM) | – | 4 (≈ 9.49 µM) | –
O=C1O[C@@H](CNC(=S)c2ccoc2)CN1c1ccc(N2CCSCC2)c(F)c1 [Example 11, N-[[(5S)-3-[3-fluoro-4-(4-thiomorpholinyl)-phenyl]-2-oxo-5-oxazolidinyl]methyl]furan-3-yl-thioamide] | 1 (≈ 2.37 µM) | 1 (≈ 2.37 µM) | 0.6 | 1 (≈ 2.37 µM) | 2 (≈ 4.74 µM) | 1 (≈ 2.37 µM) | ≥ 250 | 1 (≈ 2.37 µM) | 4 (≈ 9.49 µM) | 1 (≈ 2.37 µM) | –
CC(=O)NC[C@H]1CN(c2ccc(N3CCOCC3)c(F)c2)C(=O)O1 [Linezolid, N-[[(5S)-3-[3-Fluoro-4-(4-morpholinyl)phenyl]-2-oxo-5-oxazolidinyl]methyl]acetamide, reference compound] | 0.5 (≈ 1.48 µM) | 1 (≈ 2.96 µM) | 0.48 | 1 (≈ 2.96 µM) | 2 (≈ 5.93 µM) | 2 (≈ 5.93 µM) | 7 | 0.5 (≈ 1.48 µM) | 2 (≈ 5.93 µM) | 1 (≈ 2.96 µM) | 2 to 8
